Experimental data published in US20210308034A1, “PREBIOTIC COMPOSITIONS AND METHODS FOR MAINTAINING A HEALTHY SKIN MICROBIOTA” (KIMBERLY-CLARK WORLDWIDE, INC., priority 2018, published 2021).

Key:
Type in all cases: cell-based
[1] = tested on: Corynebacterium jeikum (ATCC 33033); test: Carbohydrate Screening Test Method (Biolog phenotype microarray), Bacteria Code B; settings: Commensal; carbon microarray plate, OD 600 nm, 36 hr, 33° C.; positive = more than 0.05 OD units above zero; blank cell = not utilized
In short: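 Strain from M9*2 agar was suspended in M9*1 medium, washed and inoculated into Biolog PM1/PM2 carbon plates. Carbohydrate use was scored yes/no, and growth rate and maximum yield were derived with GrowthRates 2.1, with max yields used for commensal ratios.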

[2] = tested on: Micrococcus luteus (SK58); test: Carbohydrate Screening Test Method (Biolog phenotype microarray), Bacteria Code E; settings: Commensal; carbon microarray plate, OD 600 nm, 36 hr, 33° C.; positive = more than 0.05 OD units above zero; blank cell = not utilized
In short: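 Each commensal strain grown in Biolog carbon phenotype microarray plates with single carbohydrate sources. Growth curves fitted with GrowthRates 2.1 to give growth rate and maximum yield. Max yields used to calculate predicted co-culture ratios between Corynebacterium, Staphylococcus and Micrococcus, compared with desired ratios of 1.3, 1.4 and 1.1.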

[3] = tested on: Staphylococcus epidermidis (ATCC 14990); test: Carbohydrate Screening Test Method (Biolog phenotype microarray), Bacteria Code I; settings: Commensal; carbon microarray plate, OD 600 nm, 36 hr, 33° C.; positive = more than 0.05 OD units above zero; blank cell = not utilized
Source text: (§1) After creating desired ratios of various commensal skin bacteria in a healthy skin microbiome, 188 different carbohydrate sources were screened as the next step in determining potential prospects for skin microbiota balancing agents. The screening process was set up to determine which carbohydrate sources promoted commensal and/or pathogenic bacteria as well as to obtain individual and combinations of carbohydrate sources that could serve as microbiota balancing agents that can support or maintain the healthy proportions of commensal skin bacteria of Corynebacterium, Staphylococcus, and Micrococcus. The screening was conducted utilizing Biolog phenotype microarray plates (Hayward, Calif.). Table 1 provides a coded list of the commensal and pathogenic skin bacteria that the carbohydrates were screened against.
Table 2 provides the results of screening various carbohydrate sources against the commensal and pathogenic bacteria codes listed in Table 1. The Bacteria Codes B, D, E, I, and J are commensal bacteria and are shaded in Table 2 for references purposes. The bacteria codes were each placed in a carbon microarray plate and screened through the Carbohydrate Screening Test Method, as described in the Test Methods section herein. If a particular bacteria code utilized a specific carbohydrate source as described in the Carbohydrate Screening Test Method, then the corresponding cell in Table 2 was marked with a Y (short for “Yes”). […] Many of the carbohydrate sources were utilized by both commensal and pathogenic bacteria, and as such, would not provide an advantage for selective growth of the commensal bacteria. However, some of the carbohydrate sources were only used by commensal bacteria and were identified for further testing as described herein.
(§2) The study employed 10 representative skin bacteria; Staphylococcus epidermidis ATCC 14990, Staphylococcus epidermidis M23864:W2, Staphylococcus aureus ATCC 6538, Staphylococcus aureus ATCC 25904 (Newman), Pseudomonas aeruginosa ATCC 9027, Micrococcus luteus ATCC […], Micrococcus luteus SK58, Klebsiella pneumoniae ATCC BAA-2146, Corynebacterium amycolatum SK46, and Corynebacterium minutissimum ATCC 23348. Cultures were started from freezer bead stocks by placing a single bead into 20 mL of tryptic soy broth (TSB) for all organisms except C. amycolatum SK46 and C. minutissimum ATCC 23348, which were placed into brain heart infusion (BHI) broth. Cultures were grown for about 24 hr at 37° C. except M. luteus ATCC 49732 and M. luteus SK58, which were grown at 30° C. A passage of the culture was made using a sterile swab and streaked onto two M9*2 agar plates to prepare the incubated culture for the phenotype microarray pate according to Table 4. Plates were incubated for about 24 hr at 37° C. except for M. luteus ATCC 49732 and M. luteus SK58, which were incubated at 30° C. for 24 hr.
(§3) All cultures were harvested and washed before inoculation into the carbon microarray plate (BiOLOG, Hayward Calif.), with Biolog Plates PM1 and PM2 each having a source definition of Carbon. The bacteria on the M9*2 agar was suspended via agitation with an inoculating loop in 1 mL of M9*1 media for collection in a 1.7 mL micro centrifuge tube, as noted in Table 4. The bacteria was suspended again in M9*1 media, agitated, and collected into the same 1.7 mL microcentrifuge tube used in the previous step. The tube was centrifuged for 5 minutes at 4,000×G, supernatant decanted, the pellet was resuspended in 1 mL of M9*1 media, and vortex. This washing process was repeated for a total of 4 times.
A tenfold dilution in M9*1 media was performed using 1 mL of the washed bacterial culture. Of the tenfold dilution 200 μL was placed in an untreated 96-well plate (Falcon, Pasadena Tx.) for an initial optical density (OD) reading at a wavelength of 600 nm. The OD was used to correlate to colony forming units (CFU) per milliliter by using linear regression lines for each organism. […]

[4] = tested on: Staphylococcus epidermidis (M23864:W2); test: Carbohydrate Screening Test Method (Biolog phenotype microarray), Bacteria Code J; settings: Commensal; carbon microarray plate, OD 600 nm, 36 hr, 33° C.; positive = more than 0.05 OD units above zero; blank cell = not utilized
Source text: as §1
(§4) The Bacteria Codes B, D, E, I, and J are commensal bacteria and are shaded in Table 2 for references purposes. The bacteria codes were each placed in a carbon microarray plate and screened through the Carbohydrate Screening Test Method, as described in the Test Methods section herein. If a particular bacteria code utilized a specific carbohydrate source as described in the Carbohydrate Screening Test Method, then the corresponding cell in Table 2 was marked with a Y (short for “Yes”).
To do so, the respective microarray data for the 79 carbohydrate sources was run through the GrowthRates 2.1 program to obtain growth parameters, such as growth rates and maximum yield data as described by the Belingham Research Institute, Hall, B. G., H. Acar and M. Barlow. 2014 Growth Rates Made Easy. Mol. Biol. Evol. 31:232-238 doi:10.1093/molbev/mst197. The max yield parameters generated were utilized to calculate ratios of tested commensal bacteria. The ratios calculated were compared back to the desired ratios identified above (Corynebacterium to Staphylococcus of 1.3, Corynebacterium to Micrococcus of 1.4, and Staphylococcus to Micrococcus of 1.1).
As an example of this methodology used to calculate the commensal bacteria ratios and the difference between the calculated ratios and the desired ratios, an example code from Table 3 will be described. […] The max yields were then used to calculate ratios the bacteria would reach in a co-culture.

[5] = tested on: Klebsiella pneumoniae (ATCC BAA-2146); settings: Pathogenic; carbon microarray plate, OD 600 nm, 36 hr, 33° C.; positive = more than 0.05 OD units above zero; blank cell = not utilized
[6] = tested on: commensal and pathogenic skin bacteria; test: Carbohydrate Screening Test Method, all bacteria codes tested; settings: ten bacteria codes of Table 1
Source text: as §1, §4, §2, §3
A tenfold dilution in M9*1 media was performed using 1 mL of the washed bacterial culture.

[7] = tested on: Pseudomonas aeruginosa (ATCC 9027); settings: Pathogenic; carbon microarray plate, OD 600 nm, 36 hr, 33° C.; positive = more than 0.05 OD units above zero; blank cell = not utilized
Source text: as §1, §4, §2, §3
A tenfold dilution in M9*1 media was performed using 1 mL of the washed bacterial culture. Of the tenfold dilution 200 μL was placed in an untreated 96-well plate (Falcon, Pasadena Tx.) for an initial optical density (OD) reading at a wavelength of 600 nm. The OD was used to correlate to colony forming units (CFU) per milliliter by using linear regression lines for each organism.

Compound	Carbohydrate Screening Results, Bacteria Code I [3]	utilization by the bacteria codes tested [6]	further results
OC[C@H]1O[C@@H](O[C@@H]2[C@@H](CO)OC(O)(CO)[C@H]2O)[C@H](O)[C@@H](O)[C@H]1O (mixture of isomers) [Lactulose]	Y		Carbohydrate Screening Results, Bacteria Code B [1]: Y; Carbohydrate Screening Results, Bacteria Code E [2]: Y; Carbohydrate Screening Results, Bacteria Code J [4]: Y
CC(O)C(C)O (stereo not shown) [2,3-Butanediol]	Y		Carbohydrate Screening Results, Bacteria Code J [4]: Y
CC(=O)C(C)O (stereo not shown) [3-Hydroxy 2-Butanone]	Y		Carbohydrate Screening Results, Bacteria Code J [4]: Y
OC[C@H]1O[C@@H](O[C@H]2[C@H](O)[C@@H](O)[C@H](O)O[C@@H]2CO)[C@H](O)[C@@H](O)[C@@H]1O [D-Cellobiose]	Y		Carbohydrate Screening Results, Bacteria Code B [1]: Y; Carbohydrate Screening Results, Bacteria Code C [5]: Y; Carbohydrate Screening Results, Bacteria Code E [2]: Y
O=C(O)C[C@@H](O)C(=O)O [D-Malic Acid]	Y		Carbohydrate Screening Results, Bacteria Code B [1]: Y; Carbohydrate Screening Results, Bacteria Code E [2]: Y
OC[C@H](O)C(O)[C@@H](O)CO [L-Arabitol]		not utilized by any of the bacteria	
O=C[C@@H](O)[C@H](O)[C@@H](O)[C@@H](O)CO [L-Glucose]		not utilized by any of the bacteria	
N[C@@H](CCO)C(=O)O [L-Homoserine]	Y		
NCCCC[C@H](N)C(=O)O [L-Lysine]		not utilized by any of the bacteria	
O=C[C@H](O)[C@H](O)[C@@H](O)CO [L-Lyxose]		not utilized by any of the bacteria	
N[C@@H](Cc1ccccc1)C(=O)O [L-Phenylalanine]		not utilized by any of the bacteria	
CC(C)[C@H](N)C(=O)O [L-Valine]		not utilized by any of the bacteria	
COC(=O)C(C)=O [Methyl Pyruvate]	Y		Carbohydrate Screening Results, Bacteria Code B [1]: Y; Carbohydrate Screening Results, Bacteria Code J [4]: Y
COC(=O)CCC(=O)O [Mono Methyl Succinate]	Y		Carbohydrate Screening Results, Bacteria Code B [1]: Y; Carbohydrate Screening Results, Bacteria Code E [2]: Y
CC(=O)N[C@H]1[C@H]([C@H](O)[C@H](O)CO)OC(O)(C(=O)O)C[C@@H]1O (stereo partly shown) [N-Acetyl-Neuraminic Acid]		not utilized by any of the bacteria	
O=C(O)C(=O)O [Oxalic Acid]	Y		Carbohydrate Screening Results, Bacteria Code J [4]: Y
O=C(O)CCCCCCCCC(=O)O [Sebacic Acid]	Y		Carbohydrate Screening Results, Bacteria Code J [4]: Y
CCC(C)N (stereo not shown) [Sec-Butylamine]		not utilized by any of the bacteria	
OC[C@@]12OC[C@@H](O1)[C@@H](O)[C@@H](O)[C@@H]2O [Sedoheptulosan]		not utilized by any of the bacteria	

Compound	Carbohydrate Screening Results, Bacteria Code I [3]	utilization by the bacteria codes tested [6]	further results
C/C=C/C=C/C(=O)O [Sorbic Acid]		not utilized by any of the bacteria	
O=C(CO)[C@@H](O[C@H]1O[C@H](CO)[C@@H](O)[C@H](O)[C@H]1O)[C@H](O)[C@H](O)CO [Turanose]	Y		
OC[C@@H](O)[C@H](O)[C@@H](O)CO [Xylitol]		not utilized by any of the bacteria	
OC[C@@H](O)[C@@H](O)CO [i-Erythritol]		not utilized by any of the bacteria	
O=C(O)Cc1ccc(O)cc1 [p-hydroxy phenyl acetic acid]		not utilized by any of the bacteria	
O=C(O)CCCO [y-Hydroxy Butyric Acid]		not utilized by any of the bacteria	
OC[C@H]1O[C@@H]2O[C@H]3[C@H](O)[C@@H](O)[C@@H](O[C@H]4[C@H](O)[C@@H](O)[C@@H](O[C@H]5[C@H](O)[C@@H](O)[C@@H](O[C@H]6[C@H](O)[C@@H](O)[C@@H](O[C@H]7[C@H](O)[C@@H](O)[C@@H](O[C@H]1[C@H](O)[C@H]2O)O[C@@H]7CO)O[C@@H]6CO)O[C@@H]5CO)O[C@@H]4CO)O[C@@H]3CO [α-Cyclodextrin]	Y		Carbohydrate Screening Results, Bacteria Code J [4]: Y
CCCC(=O)C(=O)O [α-Keto-Valeric Acid]		not utilized by any of the bacteria	
CO[C@H]1O[C@H](CO)[C@@H](O)[C@H](O)[C@H]1O [α-Methyl-D-Glucoside]		not utilized by any of the bacteria	
OC[C@H]1O[C@@H](O)[C@H](O)[C@H](O)[C@@H]1O [β-D-Allose]		not utilized by any of the bacteria	
CC(O)CC(=O)O (stereo not drawn) [β-Hydroxy Butyric Acid]	Y		Carbohydrate Screening Results, Bacteria Code F [7]: Y
COC1OCC(O)C(O)C1O [β-Methyl-D-Xyloside]		not utilized by any of the bacteria	
NCCCC(=O)O [γ-Amino Butyric Acid]	Y		Carbohydrate Screening Results, Bacteria Code J [4]: Y
Glycogen		not utilized by any of the bacteria	
Inulin	Y		Carbohydrate Screening Results, Bacteria Code J [4]: Y
Laminarin		not utilized by any of the bacteria	
Pectin	Y		Carbohydrate Screening Results, Bacteria Code J [4]: Y
Tween 20		not utilized by any of the bacteria	
Tween 80	Y		Carbohydrate Screening Results, Bacteria Code B [1]: Y; Carbohydrate Screening Results, Bacteria Code E [2]: Y
